# Reference: paper PMC4546618, “Casitas B-Lineage Lymphoma RING Domain Inhibitors Protect Mice against High-Fat Diet-Induced Obesity and Insulin Resistance” (PLoS ONE, 2015)
# Read-outs that look alike come from different tables or passages of the source. Where a SMILES comes first, the peptide text is derived from it. [ ]: non-standard residue; d: D form. Pro(trans-4-F) = O=C(O)[C@@H]1C[C@@H](F)CN1; Phe(3-F) = N[C@@H](Cc1cccc(F)c1)C(=O)O; Thz = O=C(O)[C@@H]1CSCN1
# Experiments:
# Cbl (RING) protein = target: T1, Cbl (RING) protein (Homo sapiens, UniProt P22681); assay: Fluorescence polarization (FP) assay, competition with FITC-βA-PFKPP-NH2 probe; format: binding; conditions: probe FITC-βA-PFKPP-NH2 100 nmol/L, Cbl (RING) protein 3 μmol/L, PBS pH 7.4
# T1 construct: including the linker and RING domain (codon 358–457); GST (Glutathione S-Transferase); made in house
# T1 sequence (P22681 358-457): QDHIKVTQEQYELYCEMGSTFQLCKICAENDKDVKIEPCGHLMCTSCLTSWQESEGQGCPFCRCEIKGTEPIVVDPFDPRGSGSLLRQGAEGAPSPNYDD
# Method: Peptides and peptide mimetics were purchased from MitenChem (China) with a purity ≥ 98%. Concentrations values of reconstituted peptides were determined by amino acid analysis at the protein core facility (Chengdu Medical College). The recombinant Cbl protein was produced by the Chengdu Medical College Protein Core Facility and was described previously. The c-Cbl (RING) protein, including the linker and RING domain (codon 358–457), was tagged with Glutathione S-Transferase (GST) and purified with GSH-Sepharose (Shanghai Biopharma).
# The FP assay was developed and validated previously. Briefly, fluorescein-labeled probe (FITC-βA-PFKPP-NH2, 100 nmol/L) and Cbl (RING) protein (3 μmol/L) were mixed and diluted to the final concentration using 0.01% Triton X-100 in PBS (pH = 7.4). Then, 19 μl of this master mix was loaded to each reaction well. The peptides or peptide mimetics were then loaded to the designated wells (1 μl, 10 μmol/L– 0.078 μmol/L, half-fold dilutions). The total fluorescence and polarization values were measured at an excitation wavelength of 485 nm and an emission wavelength of 538 nm using a ZS-2 plate reader. The data was fitted, and the ΔmP, Kd, and Ki values were estimated, using SigmaPlot 11.0.
# mice = assay: Acute toxicity in mice; format: in vivo; conditions: up to 15 mg/kg i.p.; for signs of acute toxicity: 72 hours; for death of animals: another 14 days following the initial examination; for H&E staining of livers, spleens and kidneys: end of experiment
# Method: (§1) All experiments were approved by the institutional Animal Care and Use Committee (Chengdu Medical College, China). All experiments were carried out in 10-week-old male mice maintained on the C57BL/6 background. All the animals were kept on a 12-h light/dark cycle with free access to food and water.
# The control group (n = 10) received vehicle only. Eight groups (10 mice each) were treated with increasing doses of either peptide 1, 3, 10, 34, 2, 60, 49, and 51 up to 15 mg/kg by i.p. Number of death, sedation, spontaneous motor activity, alertness, ptosis, dyspnea, convulsion, diarrhea, urination, postural reflex, piloerection, nociception, grooming, vocalization, rearing, climbing and aggression were observed every 12 hours for 72 h. Animals were maintained for another 14 days after the initial examination. We planned to sacrifice the animals if they show severe signs of pain or distress, a body weight loss in excess of 15% of its body weight, or a deterioration of the body condition score to BC2(-) or below. However, none of the animals qualified for the mentioned the symptoms. No animals died during the whole study. At the end of the experiment, animals were euthanized by CO2 asphyxiation followed by cervical dislocation, the livers, spleens and kidneys were collected and formalin-fixed paraffin-embedded for H&E staining.
# [1] = Pharmacokinetic studies, plasma concentration after i.p. injection; format: in vivo; conditions: mice, i.p. 4 mg/kg; for Cmax: male, C57BL/6, mouse, plasma, ip, read-out: maximum concentration in plasma; for plasma concentrations compared to the parental peptides 1 and 2: at each time point after 1 hour
# Method: as §1
# Peptides (1, 3, 10, 34, 2, 60, 49, and 51) were dissolved in sterile aqueous 5% dextrose and administered to mice by i.p. injection (4 mg/kg). Blood samples were collected from the tail tip at 0, 0.5, 1, 6, 12, 18, 24 and 48 hours. Plasma samples were harvested by centrifugation and stored at -80°C until assayed. Peptide concentrations in plasma were determined by Reversed-Phase High-Performance Liquid Chromatography (RP-HPLC) with electrospray ionization mass spectrometric ([…]) detection. Samples were assayed with a series of 8 calibration standards of peptide in plasma at concentrations ranging from 50 to 6000 μg/L. Peptide concentrations were determined by comparing to the standards.
# mice fed a high-fat diet [2] = assay: High-fat diet-induced obesity: body weight, food intake, body composition, adipocyte volume; format: in vivo; conditions: daily i.p. 5 mg/kg; for body weight gain vs vehicle, parental and negative control peptide groups: 12-week feeding period; for percentage of perigonadal fat mass / adipocyte volume: 12 weeks; for percentage of perigonadal fat mass: NMR, vehicle 8 ± 0.8%; for adipocyte volume: adipocytes from epididymal fat pad, vehicle 510 ± 42 pL
# Method: as §1
# (§2) Animals (n = 90) were randomly assigned to one of the nine groups (Table 1). Animals were fed ad libitum with a high-fat diet (60% of caloric intake from fat (70% saturated fat), 20% from carbohydrates, and 20% from protein) before experiments and for another 12 weeks during the experiments. Food intake was measured manually on a daily basis. Eight groups of animals were treated with indicated peptides with a daily i.p. injection at 5 mg/kg and one group of animals were treated with vehicle.
# Body composition was measured using nuclear magnetic resonance (NMR) technology at Chengdu College core facility. Epididymal fat pads were excised and adipocytes were isolated. Cells were then fixed using 2% OsO4 in PBS overnight at 37°C [2].
# mice fed a high-fat diet [3] = assay: Glucose tolerance test after 12 weeks of treatment on high-fat diet; format: in vivo; conditions: overnight fasted mice, 2 g/kg glucose i.p., after 12 weeks daily i.p. 5 mg/kg on high-fat diet
# Method: as §1, §2
# After receiving 12 weeks of treatment as described above, glucose tolerance tests were performed in overnight fasted mice. Each mouse received a 2 g/kg glucose through i.p. Blood samples were obtained from the tail tip at 0, 30, 60, 90, and 120 min. Insulin concentrations were measured using mouse insulin Elisa kits (ChrystalChem) using mouse standards. Glucose levels were measured using a glucometer (Roche).
# mice fed a high-fat diet [4] = assay: Indirect energy expenditure and physical activity measurement; format: in vivo; conditions: after 12 weeks daily i.p. 5 mg/kg on high-fat diet; for Oxygen consumption VO2: vehicle 4.15 ± 0.55; for Ambulatory day activity / Ambulatory night activity: photobeam break counts; for Ambulatory day activity: vehicle 2,069 ± 705; for Ambulatory night activity: vehicle 6,289 ± 1,216
# Method: as §1, §2
# After receiving 12 weeks of treatment as described above, rates of oxygen consumption (VO2) was measured using a four-chamber indirect calorimeter (Langguan, China, air flow of 0.5 l/min). A total of 2-hour measurement for each animal was conducted at 15-minuate intervals under room temperature (22°C). Ambulatory activity was estimated by counting the number of photobeam breaks in a three-sensor chamber instrument (Rui Pharm, China), and the cumulative ambulatory activity counts were recorded every hour. A total of 12 h-day time and 12 h-night activity were recorded for each animal.
Compound,Ki (Cbl (RING) protein) [µM],signs of acute toxicity (mice),death of animals (mice),"H&E staining of livers, spleens and kidneys (mice)",Cmax ([1]; observed in 60 min) [µg/mL],plasma concentrations compared to the parental peptides 1 and 2 [1],"body weight gain vs vehicle, parental and negative control peptide groups (mice fed a high-fat diet [2])",percentage of perigonadal fat mass (mice fed a high-fat diet [2]) [%],adipocyte volume (mice fed a high-fat diet [2]) [pL],blood insulin levels compared to the vehicle group (mice fed a high-fat diet [3]),glucose tolerance compared to the vehicle group (mice fed a high-fat diet [3]),Oxygen consumption VO2 (mice fed a high-fat diet [4]) [mL/g/h],Ambulatory day activity (mice fed a high-fat diet [4]),Ambulatory night activity (mice fed a high-fat diet [4]),Cmax ([1]; observed in 30 min) [µg/mL]
"CC(=O)N1CCC[C@H]1C(=O)N[C@@H](Cc1cccc(F)c1)C(=O)N[C@@H](CCCCN)C(=O)N1CCC[C@H]1C(=O)N1CCC[C@H]1C(N)=O [Peptide 10, Ac-P(h)KPP-NH2] (Ac-P[Phe(3-F)]KPP-NH2)",1.8 ± 0.8,did not show vital signs of acute toxicity,None of the animals died,does not show any sign of injuries,4.52,greater plasma concentrations,significant differences in body weight gain,3.5 ± 0.5,295 ± 31,significant reduction in blood insulin levels,better glucose tolerance,5.92 ± 0.36,"3,512 ± 923 per 12 h","12,896 ± 2,469 per 12 h",
"CC(=O)N1CSC[C@H]1C(=O)N[C@@H](Cc1cccc(F)c1)C(=O)N[C@@H](CCCCN)C(=O)N1CCC[C@H]1C(=O)N1CCC[C@H]1C(N)=O [Peptide 34, Ac-(r) (h)KPP-NH2] (Ac-[Thz][Phe(3-F)]KPP-NH2)",1.5 ± 0.4,did not show vital signs of acute toxicity,None of the animals died,does not show any sign of injuries,5.02,greater plasma concentrations,significant differences in body weight gain,3.0 ± 0.9,258 ± 29,significant reduction in blood insulin levels,better glucose tolerance,5.88 ± 0.85,"3,485 ± 864 per 12 h",,
"CC(=O)N[C@@H](CCCCN)C(=O)N1CSC[C@H]1C(=O)N[C@@H](C)C(=O)N[C@H](C(=O)N[C@@H](CCCCN)C(N)=O)[C@@H](C)O [Peptide 49, Ac-K(r)ATK-NH2] (Ac-K[Thz]ATK-NH2)",2.9 ± 1.2,did not show vital signs of acute toxicity,None of the animals died,does not show any sign of injuries,4.68,greater plasma concentrations,significant differences in body weight gain,3.9 ± 0.4,230 ± 38,significant reduction in blood insulin levels,better glucose tolerance,6.12 ± 0.58,"4,012 ±1,207 per 12 h","20,126 ± 2,914 per 12 h",
"CC(=O)N[C@@H](CCCCN)C(=O)N1C[C@H](F)C[C@H]1C(=O)N[C@@H](C)C(=O)N[C@H](C(=O)N[C@@H](CCCCN)C(N)=O)[C@@H](C)O [Peptide 51, Ac-K(t)ATK-NH2] (Ac-K[Pro(trans-4-F)]ATK-NH2)",3.8 ± 1.1,did not show vital signs of acute toxicity,None of the animals died,does not show any sign of injuries,4.62,greater plasma concentrations,significant differences in body weight gain,4.0 ± 0.8,250 ± 40,significant reduction in blood insulin levels,better glucose tolerance,5.99 ± 0.95,"4,953 ± 1,014 per 12 h","19,251 ± 3,058 per 12 h",
"Ac-PFKPP-NH2 [Peptide 1, Ac-PFKPP-NH2]",7.2 ± 0.5,did not show vital signs of acute toxicity,None of the animals died,does not show any sign of injuries,,,,6.2 ± 0.7,430 ± 35,,not statistically significant,3.95 ± 0.22,"2,152 ± 865 per 12 h","5,941 ± 1,355 per 12 h",3.08
